Laboratory results taken from ChEMBL document CHEMBL3120153, “Novel Quinoline-Based P2-P4 Macrocyclic Derivatives As Pan-Genotypic HCV NS3/4a Protease Inhibitors” (ACS Med Chem Lett, 2014).

Columns and labels:
NS3 protease [1] = target: NS3 protease (Hepatitis C virus subtype 1b, UniProt Q0ZMF1, D168Y); test: Inhibition of Hepatitis C virus genotype 1b NS3/4A protease D168Y mutant assessed as substrate cleavage using Ac-C(Eu)DDMEEAbu(COO)ASK(QSY7)-amide as substrate incubated for 30 mins prior to substrate addition by time-resolved fluorescence assay
NS3 protease [2] = target: NS3 protease (Hepatitis C virus subtype 1b, UniProt Q0ZMF1, A156V); test: Inhibition of Hepatitis C virus genotype 1b NS3/4A protease A156V mutant assessed as substrate cleavage using Ac-C(Eu)DDMEEAbu(COO)ASK(QSY7)-amide as substrate incubated for 30 mins prior to substrate addition by time-resolved fluorescence assay
NS3 protease [3] = target: NS3 protease (Hepatitis C virus subtype 1b, UniProt Q0ZMF1, A156T); test: Inhibition of Hepatitis C virus genotype 1b NS3/4A protease A156T mutant assessed as substrate cleavage using Ac-C(Eu)DDMEEAbu(COO)ASK(QSY7)-amide as substrate incubated for 30 mins prior to substrate addition by time-resolved fluorescence assay
NS3 protease [4] = target: NS3 protease (Hepatitis C virus subtype 1b, UniProt Q0ZMF1, R155K); test: Inhibition of Hepatitis C virus genotype 1b NS3/4A protease R155K mutant assessed as substrate cleavage using Ac-C(Eu)DDMEEAbu(COO)ASK(QSY7)-amide as substrate incubated for 30 mins prior to substrate addition by time-resolved fluorescence assay
[5] = Inhibition of Hepatitis C virus genotype 3a NS3/4A protease assessed as substrate cleavage using Ac-C(Eu)DDMEEAbu(COO)ASK(QSY7)-amide as substrate incubated for 30 mins prior to substrate addition by time-resolved fluorescence assay; design: species or system Hepatitis C virus subtype 3a
[6] = Inhibition of Hepatitis C virus genotype 1b NS3/4A protease assessed as substrate cleavage using Ac-C(Eu)DDMEEAbu(COO)ASK(QSY7)-amide as substrate incubated for 30 mins prior to substrate addition by time-resolved fluorescence assay; design: species or system Hepatitis C virus subtype 1b

Compound | IC50 (NS3 protease [1]) | IC50 (NS3 protease [2]) | IC50 (NS3 protease [3]) | IC50 (NS3 protease [4]) | IC50 [5] | IC50 [6]
C=C[C@@H]1C[C@]1(NC(=O)[C@@H]1C[C@@H]2CN1C(=O)[C@H](C1CCCCC1)NC(=O)O[C@@H]1C[C@H]1CCCCCc1c(nc3ccccc3c1OC1CCN(CCOC(F)(F)F)CC1)O2)C(=O)NS(=O)(=O)C1(C)CC1 | 0.48 nM | 1.58 nM | 1.32 nM | 0.15 nM | 1.22 nM | 0.15 nM
C=C[C@@H]1C[C@]1(NC(=O)[C@@H]1C[C@@H]2CN1C(=O)[C@H](C1CCCCC1)NC(=O)O[C@@H]1C[C@H]1CCCCCc1c(nc3ccccc3c1OC1CCN(CCS(C)(=O)=O)CC1)O2)C(=O)NS(=O)(=O)C1(C)CC1 | 2.1 nM | 3.76 nM | 5.21 nM | 0.21 nM | 5.18 nM | 0.02 nM
C=C[C@@H]1C[C@]1(NC(=O)[C@@H]1C[C@@H]2CN1C(=O)[C@H](C1CCCCC1)NC(=O)O[C@@H]1C[C@H]1CCCCCc1c(nc3ccccc3c1OC1CCN(CC(F)(F)F)CC1)O2)C(=O)NS(=O)(=O)C1(C)CC1 | 12.9 nM | 27.2 nM | 26.1 nM | 3.4 nM | 104 nM | 0.4 nM
C=C[C@@H]1C[C@]1(NC(=O)[C@@H]1C[C@@H]2CN1C(=O)[C@H](C1CCCCC1)NC(=O)O[C@@H]1C[C@H]1CCCCCc1c(nc3ccccc3c1OC1CCN(CCF)CC1)O2)C(=O)NS(=O)(=O)C1(C)CC1 | 1.3 nM | 1.67 nM | 2.15 nM | 0.13 nM | 2.13 nM | 0.01 nM
C=C[C@@H]1C[C@]1(NC(=O)[C@@H]1C[C@@H]2CN1C(=O)[C@H](C1CCCCC1)NC(=O)O[C@@H]1C[C@H]1CCCCCc1c(nc3ccccc3c1OC1CCOCC1)O2)C(=O)NS(=O)(=O)C1(C)CC1 | 2.07 nM | 3.4 nM | 4.1 nM | 0.26 nM | 11 nM | 0.03 nM
C=C[C@@H]1C[C@]1(NC(=O)[C@@H]1C[C@@H]2CN1C(=O)[C@H](C(C)(C)C)NC(=O)O[C@@H]1C[C@H]1CCCCCc1c(nc3ccccc3c1O[C@H]1C[C@H]3CC[C@@H](C1)N3CCOC)O2)C(=O)NS(=O)(=O)C1(C)CC1 | 0.06 nM | 0.71 nM | 0.48 nM | 0.02 nM | 0.14 nM | 0.01 nM
C=C[C@@H]1C[C@]1(NC(=O)[C@@H]1C[C@@H]2CN1C(=O)[C@H](C1CCCCC1)NC(=O)O[C@@H]1C[C@H]1CCCCCc1c(nc3ccccc3c1O[C@H]1C[C@H]3CC[C@@H](C1)N3)O2)C(=O)NS(=O)(=O)C1(C)CC1 | 0.05 nM | 0.13 nM | 0.08 nM | 0.02 nM | 0.11 nM | 0.01 nM
C=C[C@@H]1C[C@]1(NC(=O)[C@@H]1C[C@@H]2CN1C(=O)[C@H](C(C)(C)C)NC(=O)O[C@@H]1C[C@H]1CCCCCc1c(nc3ccccc3c1O[C@@H]1C[C@H]3CC[C@@H](C1)N3CCOC)O2)C(=O)NS(=O)(=O)C1(C)CC1 | 1.45 nM | 0.86 nM | 1.25 nM | 0.28 nM | 4.7 nM | 0.02 nM
C=C[C@@H]1C[C@]1(NC(=O)[C@@H]1C[C@@H]2CN1C(=O)[C@H](C(C)(C)C)NC(=O)O[C@@H]1C[C@H]1CCCCCc1c(nc3ccccc3c1O[C@@H]1C[C@H]3CC[C@@H](C1)N3CC)O2)C(=O)NS(=O)(=O)C1(C)CC1 | 0.57 nM | 0.41 nM | 0.46 nM | 0.12 nM | 1.2 nM | 0.02 nM
C=C[C@@H]1C[C@]1(NC(=O)[C@@H]1C[C@@H]2CN1C(=O)[C@H](C1CCCCC1)NC(=O)O[C@@H]1C[C@H]1CCCCCc1c(nc3ccccc3c1O[C@H]1C[C@H]3CC[C@@H](C1)N3CCOC)O2)C(=O)NS(=O)(=O)C1(C)CC1 | 0.19 nM | 0.36 nM | 0.35 nM | 0.05 nM | 0.28 nM | 0.02 nM
